# Laboratory results: patent US10004701B2, “Methods and compositions for treating infection” (UNIVERSITY OF ROCHESTER, priority 2012, dated 2018)
# Counter-ions that a name gives are not always drawn. Like-named read-outs stand apart in the source and are kept apart here.
# What was measured:
# Experiment in all cases: AK assay 384-well format, Prestwick library screening
# K. pneumoniae = format: cell-based, Klebsiella pneumoniae; conditions: 50 μM final drug concentration; for fold induction at 50 µM: Klebsiella pneumoniae, 3 h
# E. faecium = format: cell-based, Enterococcus faecium; conditions: 50 μM final drug concentration; for fold induction at 50 µM: Enterococcus faecium, 3 h
# [1] = system: A. baumannii strain 98-37-09; format: cell-based, Acinetobacter baumannii; conditions: 50 μM final drug concentration; for fold induction at 50 µM: Acinetobacter baumannii, 983709, 3 h
# P. aeruginosa = format: cell-based, Pseudomonas aeruginosa; conditions: 50 μM final drug concentration; for fold induction at 50 µM: Pseudomonas aeruginosa, 3 h
# E. cloacae = format: cell-based, Enterobacter cloacae; conditions: 50 μM final drug concentration; for fold induction at 50 µM: Enterobacter cloacae, 3 h
# E. coli = format: cell-based, Escherichia coli; conditions: 50 μM final drug concentration; for fold induction at 50 µM: Escherichia coli, 3 h
# [2] = system: S. aureus strain USA300-0114; format: cell-based, Staphylococcus aureus; conditions: 50 μM final drug concentration; for fold induction at 50 µM: Staphylococcus aureus, USA300, 3 h
# [3] = planktonic K. pneumoniae, cutoff for positive-scoring molecules 3-fold increase, read-out: AK-based Prestwick Library Screening Results, K. pneumoniae (increase in extracellular AK activity)
# [4] = planktonic E. faecium, cutoff for positive-scoring molecules 3-fold increase, read-out: AK-based Prestwick Library Screening Results, E. faecium (increase in extracellular AK activity)
# [5] = planktonic A. baumannii, cutoff for positive-scoring molecules 3-fold increase, read-out: AK-based Prestwick Library Screening Results, A. baumannii (increase in extracellular AK activity)
# [6] = planktonic P. aeruginosa, cutoff for positive-scoring molecules 3-fold increase, read-out: AK-based Prestwick Library Screening Results, P. aeruginosa (increase in extracellular AK activity)
# [7] = planktonic E. cloacae, cutoff for positive-scoring molecules 3-fold increase, read-out: AK-based Prestwick Library Screening Results, E. cloacae (increase in extracellular AK activity)
# [8] = planktonic E. coli, cutoff for positive-scoring molecules 3-fold increase, read-out: AK-based Prestwick Library Screening Results, E. coli (increase in extracellular AK activity)
# [9] = planktonic S. aureus, cutoff for positive-scoring molecules 3-fold increase, read-out: AK-based Prestwick Library Screening Results, S. aureus (increase in extracellular AK activity)
# [10] = 384-well format, cutoff for positive-scoring molecules 3-fold increase, read-out: AK-based Prestwick Library Screening Results, K. pneumoniae (increase in extracellular AK activity)
# [11] = 384-well format, cutoff for positive-scoring molecules 3-fold increase, read-out: AK-based Prestwick Library Screening Results, E. faecium (increase in extracellular AK activity)
# [12] = 384-well format, cutoff for positive-scoring molecules 3-fold increase, read-out: AK-based Prestwick Library Screening Results, A. baumannii (increase in extracellular AK activity)
# [13] = 384-well format, cutoff for positive-scoring molecules 3-fold increase, read-out: AK-based Prestwick Library Screening Results, P. aeruginosa (increase in extracellular AK activity)
# [14] = 384-well format, cutoff for positive-scoring molecules 3-fold increase, read-out: AK-based Prestwick Library Screening Results, E. cloacae (increase in extracellular AK activity)
# [15] = 384-well format, cutoff for positive-scoring molecules 3-fold increase, read-out: AK-based Prestwick Library Screening Results, E. coli (increase in extracellular AK activity)
# [16] = 384-well format, cutoff for positive-scoring molecules 3-fold increase, read-out: AK-based Prestwick Library Screening Results, S. aureus (increase in extracellular AK activity)
# [17] = cutoff for positive-scoring molecules 3-fold increase
smiles,measurement,setting,value
COc1ccc(Cc2nccc3cc(OC)c(OC)cc23)cc1OC [Papaverine hydrochloride],fold induction at 50 µM,K. pneumoniae; [3],0.8
same,fold induction at 50 µM,E. faecium; [4],1
same,fold induction at 50 µM,[1]; [5],0.8
same,fold induction at 50 µM,P. aeruginosa; [6],1
same,fold induction at 50 µM,E. cloacae; [7],0.9
same,fold induction at 50 µM,E. coli; [8],0.9
same,fold induction at 50 µM,[2]; [9],0.6
COc1cccc2c1C(=O)c1c(O)c3c(c(O)c1C2=O)C[C@@](O)(C(=O)CO)C[C@@H]3O[C@H]1C[C@H](N)[C@H](O)[C@H](C)O1 [Doxorubicin hydrochloride],fold induction at 50 µM,K. pneumoniae; [3],0.7
same,fold induction at 50 µM,E. faecium; [4],1.7
same,fold induction at 50 µM,[1]; [5],1
same,fold induction at 50 µM,P. aeruginosa; [6],0.6
same,fold induction at 50 µM,E. cloacae; [7],1.2
same,fold induction at 50 µM,E. coli; [8],1
same,fold induction at 50 µM,[2]; [9],0.9
O=C(O)COC(=O)Cc1ccccc1Nc1c(Cl)cccc1Cl [Aceclofenac],fold induction at 50 µM,K. pneumoniae; [10],0.6
same,fold induction at 50 µM,E. faecium; [11],1
same,fold induction at 50 µM,[1]; [12],0.7
same,fold induction at 50 µM,P. aeruginosa; [13],0.8
same,fold induction at 50 µM,E. cloacae; [14],0.8
same,fold induction at 50 µM,E. coli; [15],0.7
same,fold induction at 50 µM,[2]; [16],0.7
"CC(=O)c1cc2ccccc2oc1=O [Compound 3-Acetylcoumarin, 3-Acetylcoumarin]",fold induction at 50 µM,"K. pneumoniae; planktonic, cutoff for positive-scoring molecules 3-fold increase, read-out: AK-based Prestwick Library Screening Results, K. pneumoniae (fold increase in extracellular AK activity)",0.6
same,fold induction at 50 µM,"E. faecium; planktonic, cutoff for positive-scoring molecules 3-fold increase, read-out: AK-based Prestwick Library Screening Results, E. faecium (fold increase in extracellular AK activity)",0.9
same,fold induction at 50 µM,"[1]; planktonic, cutoff for positive-scoring molecules 3-fold increase, read-out: AK-based Prestwick Library Screening Results, A. baumannii (fold increase in extracellular AK activity)",0.8
same,fold induction at 50 µM,"P. aeruginosa; planktonic, cutoff for positive-scoring molecules 3-fold increase, read-out: AK-based Prestwick Library Screening Results, P. aeruginosa (fold increase in extracellular AK activity)",0.8
same,fold induction at 50 µM,"E. cloacae; planktonic, cutoff for positive-scoring molecules 3-fold increase, read-out: AK-based Prestwick Library Screening Results, E. cloacae (fold increase in extracellular AK activity)",1.1
same,fold induction at 50 µM,"E. coli; planktonic, cutoff for positive-scoring molecules 3-fold increase, read-out: AK-based Prestwick Library Screening Results, E. coli (fold increase in extracellular AK activity)",0.7
same,fold induction at 50 µM,"[2]; planktonic, cutoff for positive-scoring molecules 3-fold increase, read-out: AK-based Prestwick Library Screening Results, S. aureus (fold increase in extracellular AK activity)",0.6
CC1=C(/C=C/C(C)=C/C=C/C(C)=C/C(=O)O)C(C)(C)CCC1 [Retinoic acid],fold induction at 50 µM,K. pneumoniae; [10],0.6
same,fold induction at 50 µM,E. faecium; [11],1
same,fold induction at 50 µM,[1]; [12],0.8
same,fold induction at 50 µM,P. aeruginosa; [13],0.7
same,fold induction at 50 µM,E. cloacae; [14],0.9
same,fold induction at 50 µM,E. coli; [15],0.7
same,fold induction at 50 µM,[2]; [16],0.8
CC[N+](CC)(CC)CCC(O)(c1ccccc1)C1CCCCC1.[Cl-] (stereo not drawn) [Tridihexethyl chloride],"AK-based Prestwick Library Screening Results, K. pneumoniae (fold increase in extracellular AK activity)",K. pneumoniae; [17],0.4
same,"AK-based Prestwick Library Screening Results, E. faecium (fold increase in extracellular AK activity)",E. faecium; [17],0.8
same,"AK-based Prestwick Library Screening Results, A. baumannii (fold increase in extracellular AK activity)",[1]; [17],0.4
same,"AK-based Prestwick Library Screening Results, P. aeruginosa (fold increase in extracellular AK activity)",P. aeruginosa; [17],0.4
same,"AK-based Prestwick Library Screening Results, E. cloacae (fold increase in extracellular AK activity)",E. cloacae; [17],0.3
same,"AK-based Prestwick Library Screening Results, E. coli (fold increase in extracellular AK activity)",E. coli; [17],0.4
same,"AK-based Prestwick Library Screening Results, S. aureus (fold increase in extracellular AK activity)",[2]; [17],0.4
"CNCC(O)c1ccc(O)cc1 (racemic) [(+,−)-Synephrine]","AK-based Prestwick library screening result, K. pneumoniae (fold increase in extracellular AK activity)","K. pneumoniae; planktonic K. pneumoniae, positive cutoff 3-fold increase",1.0
same,"AK-based Prestwick library screening result, E. faecium (fold increase in extracellular AK activity)","E. faecium; planktonic E. faecium, positive cutoff 3-fold increase",1.1
same,"AK-based Prestwick library screening result, A. baumannii (fold increase in extracellular AK activity)","[1]; planktonic A. baumannii, positive cutoff 3-fold increase",1.1
same,"AK-based Prestwick library screening result, P. aeruginosa (fold increase in extracellular AK activity)","P. aeruginosa; planktonic P. aeruginosa, positive cutoff 3-fold increase",1.1
same,"AK-based Prestwick library screening result, E. cloacae (fold increase in extracellular AK activity)","E. cloacae; planktonic E. cloacae, positive cutoff 3-fold increase",1.3
same,"AK-based Prestwick library screening result, E. coli (fold increase in extracellular AK activity)","E. coli; planktonic E. coli, positive cutoff 3-fold increase",1.3
same,"AK-based Prestwick library screening result, S. aureus (fold increase in extracellular AK activity)","[2]; planktonic S. aureus, positive cutoff 3-fold increase",1.0
Cc1cccc(C)c1N=C1NCCCS1 [Xylazine],fold induction at 50 µM,"K. pneumoniae; planktonic K. pneumoniae, […], read-out: AK-based Prestwick Library Screening Results, K. pneumoniae (increase in extracellular AK activity)",0.7
same,fold induction at 50 µM,"E. faecium; planktonic E. faecium, […], read-out: AK-based Prestwick Library Screening Results, E. faecium (increase in extracellular AK activity)",0.9
same,fold induction at 50 µM,"[1]; planktonic A. baumannii, […], read-out: AK-based Prestwick Library Screening Results, A. baumannii (increase in extracellular AK activity)",0.9
same,fold induction at 50 µM,"P. aeruginosa; planktonic P. aeruginosa, […], read-out: AK-based Prestwick Library Screening Results, P. aeruginosa (increase in extracellular AK activity)",0.9
same,fold induction at 50 µM,"E. cloacae; planktonic E. cloacae, […], read-out: AK-based Prestwick Library Screening Results, E. cloacae (increase in extracellular AK activity)",1.4
same,fold induction at 50 µM,"E. coli; planktonic E. coli, […], read-out: AK-based Prestwick Library Screening Results, E. coli (increase in extracellular AK activity)",0.8
same,fold induction at 50 µM,"[2]; planktonic S. aureus, […], read-out: AK-based Prestwick Library Screening Results, S. aureus (increase in extracellular AK activity)",0.8
Fc1ccc(C(OCCN2CCN(CCCc3ccccc3)CC2)c2ccc(F)cc2)cc1 [GBR 12909 dihydrochloride],fold induction at 50 µM,"K. pneumoniae; planktonic, cutoff for positive 3-fold increase, read-out: AK-based Prestwick Library Screening Results, K. pneumoniae (fold increase in extracellular AK activity)",1
same,fold induction at 50 µM,"E. faecium; planktonic, cutoff for positive 3-fold increase, read-out: AK-based Prestwick Library Screening Results, E. faecium (fold increase in extracellular AK activity)",1.3
same,fold induction at 50 µM,"[1]; planktonic, cutoff for positive 3-fold increase, read-out: AK-based Prestwick Library Screening Results, A. baumannii (fold increase in extracellular AK activity)",2.2
same,fold induction at 50 µM,"P. aeruginosa; planktonic, cutoff for positive 3-fold increase, read-out: AK-based Prestwick Library Screening Results, P. aeruginosa (fold increase in extracellular AK activity)",1.2
same,fold induction at 50 µM,"E. cloacae; planktonic, cutoff for positive 3-fold increase, read-out: AK-based Prestwick Library Screening Results, E. cloacae (fold increase in extracellular AK activity)",1.5
same,fold induction at 50 µM,"E. coli; planktonic, cutoff for positive 3-fold increase, read-out: AK-based Prestwick Library Screening Results, E. coli (fold increase in extracellular AK activity)",1.4
same,fold induction at 50 µM,"[2]; planktonic, cutoff for positive 3-fold increase, read-out: AK-based Prestwick Library Screening Results, S. aureus (fold increase in extracellular AK activity)",1.5
